Measurements taken from patent publication US20200178586A1, “PEPTIDE” (FUJI OIL HOLDINGS INC., priority 2017, published 2020).
Entries after “also recorded” stand apart in the source; their conditions may differ. Marks after values point to notes of the source that are not given here. *1 amine or outer side, *2 acyl side, *3 side chain or, on linkers, in order; H or OH if unused. Where no end group is shown, it is not given here. [ ]: non-standard residue; d: D form. γGlu = O=C(O)[C@H](CCC(=O)[*:2])N[*:1]

Assays:
[1] = Sensory evaluation of body taste-imparting effect on sweet taste solution (Example 3); conditions: Sweet taste solution (6% sucrose), 100 ppm peptide; for Initial-middle taste: average score of eight trained panelists, 5 levels, control = 3 points; for body taste-imparting effect (in words): summary of FIG. 3 and Table 2
Procedure: Sweet taste solution containing 6% sucrose was used as a control (3 points). And, sample solution was prepared by adding 100 ppm of each γ-glutamyl tripeptide to the control. As comparative controls, γ-Glu-γ-Glu-Val and γ-Glu-γ-Glu-α-Glu-Tyr were used. The panelists were eight trained panelists at Fuji Oil Holdings Inc. And, the panelist evaluated a body taste of from initial taste to middle taste with the following five levels.
(§1) 5 points: feels much stronger than the control 4 points: feels stronger than the control 3 points: feels the same as the control 2 points: feels a little weaker than the control 1 point: feels much weaker than the control

[2] = Sensory evaluation of body taste-imparting effect of γ-glutamyl peptides in umami solution and sweet taste solution (Example 2); conditions: for Initial-middle taste / Middle-after taste: average score of 7 trained panelists, 5 levels, control = 3 points; for body taste of from the initial taste to middle taste (in words) / persistence of the aftertaste (in words) / taste from the middle taste to aftertaste (in words): umami and sweet taste solutions, summary of Table 1
Procedure: Umami solution containing 0.7% MSG-0.4% NaCl and Sweet taste solution containing 6% sucrose were used as controls (3 points). And, sample solution was prepared by adding each γ-glutamyl peptide to the control. As comparative controls, γ-Glu-Val-Gly disclosed in Patent Document 1 and Patent Document 6 were used. The panelists were 7 trained panelists at Fuji Oil Holdings Inc. And, the panelist evaluated a body taste of from initial taste to middle taste, a thickness of from middle taste to aftertaste, and persistence with the following five levels.
as §1

[3] = Sweet taste solution (6% sucrose)
[4] = Umami solution (0.7% MSG-0.4% NaCl)

| Substance | Initial-middle taste [1] | body taste-imparting effect (in words) [1] | also measured |
| --- | --- | --- | --- |
| [γGlu][γGlu][γGlu]C | 3.0 points | – | – |
| [γGlu][γGlu][γGlu]G | 3.1 points | – | – |
| [γGlu][γGlu][γGlu]A | 3.4 points | particularly effective | – |
| [γGlu][γGlu][γGlu]P | 3.1 points | – | – |
| [γGlu][γGlu][γGlu]K | 3.1 points | – | – |
| [γGlu][γGlu][γGlu]H | 3.5* points | particularly effective | – |
| [γGlu][γGlu][γGlu]V | 3.4 points | particularly effective; also recorded: superior to γ-Glu-γ-Glu-Val | – |
| [γGlu][γGlu][γGlu]S | 3.4 points | particularly effective | – |
| [γGlu][γGlu][γGlu]E | 3.5* points | particularly effective | – |
| [γGlu]-[γGlu]-Tyr | – | – | Initial-middle taste [2, 3]: 4.0* points; Middle-after taste [2, 3]: 3.7* points; Initial-middle taste [2, 4]: 4.0* points; Middle-after taste [2, 4]: 3.9* points; body taste of from the initial taste to middle taste (in words) [2]: imparted the body taste overall; persistence of the aftertaste (in words) [2]: suppressed |
| [γGlu][γGlu][γGlu]I | 3.4 points | particularly effective | – |
| [γGlu]-Tyr [reference compound] | – | – | Initial-middle taste [2, 3]: 3.5 points; Middle-after taste [2, 3]: 3.9* points; Initial-middle taste [2, 4]: 3.5 points; Middle-after taste [2, 4]: 3.9* points; body taste of from the initial taste to middle taste (in words) [2]: imparted little body taste; persistence of the aftertaste (in words) [2]: persistent of the strong aftertaste; taste from the middle taste to aftertaste (in words) [2]: strong |
| [γGlu][γGlu][γGlu]D | 3.4 points | particularly effective | – |
| [γGlu][γGlu][γGlu]W | 3.1 points | – | – |
| [γGlu][γGlu][γGlu]R | 4.1** points | particularly effective | – |
| [γGlu][γGlu][γGlu]Q | 3.3 points | – | – |
| [γGlu]-Val-Gly [reference compound] | – | – | Initial-middle taste [2, 3]: 3.6 points; Middle-after taste [2, 3]: 4.3* points; Initial-middle taste [2, 4]: 3.6 points; Middle-after taste [2, 4]: 4.8* points; body taste of from the initial taste to middle taste (in words) [2]: imparted little body taste; persistence of the aftertaste (in words) [2]: persistent of the strong aftertaste; taste from the middle taste to aftertaste (in words) [2]: strong |
| [γGlu][γGlu][γGlu]F | 3.4 points | particularly effective | – |
| [γGlu][γGlu][γGlu]Y | 4.3** points | particularly effective | Initial-middle taste [2, 3]: 4.3* points; Middle-after taste [2, 3]: 4.3* points; Initial-middle taste [2, 4]: 4.1* points; Middle-after taste [2, 4]: 4.0* points; body taste of from the initial taste to middle taste (in words) [2]: imparted the body taste overall; persistence of the aftertaste (in words) [2]: suppressed |
| [γGlu][γGlu][γGlu]M | 3.0 points | – | – |
| [γGlu]-[γGlu]-Val | 3.1 points | – | – |
| [γGlu][γGlu][γGlu]N | 3.3 points | – | – |
| [γGlu][γGlu][γGlu]T | 2.9 points | – | – |
| [γGlu][γGlu][γGlu]L | 3.3 points | particularly effective | – |
| [γGlu][γGlu]EY | 3.4 points | an effect was also observed | – |
| [γGlu][γGlu][γGlu][γGlu]Y | – | – | Initial-middle taste [2, 3]: 3.9* points; Middle-after taste [2, 3]: 3.6 points; Initial-middle taste [2, 4]: 3.9* points; Middle-after taste [2, 4]: 3.7 points; body taste of from the initial taste to middle taste (in words) [2]: sufficiently imparted a body taste |
